Data as given in ChEMBL document CHEMBL5108010, “Structure-activity relationship studies on divalent naphthalene diimide G quadruplex ligands with anticancer and antiparasitic activity” (Bioorg Med Chem, 2022).

Tests used:
Quadruplex DNA [1] = experiment: Binding affinity to G-quadruplex telomeric DNA F21T (5'-duplex GGG TTAGGG TTAGGG TTAGGG-3') (unknown origin) assessed as stabilization by measuring change in melting temperature at 10 uM in sodium buffer by FRET melting assay; assay type: nucleic-acid assay
Leishmania major = experiment: Antileishmanial activity against Leishmania major (MHOM/IL/80/Friedlin) promastigotes assessed as inhibition of parasite growth incubated for 72 hrs by MTT assay; assay type: functional, organism-based; conditions: Leishmania major, MHOM/IL/80/Friedlin, 72 h
Quadruplex DNA [2] = experiment: Binding affinity to G-quadruplex telomeric DNA F21T (5'-duplex GGG TTAGGG TTAGGG TTAGGG-3') (unknown origin) assessed as stabilization by measuring change in melting temperature at 10 uM in potassium buffer by FRET melting assay; assay type: nucleic-acid assay
Quadruplex DNA [3] = experiment: Binding affinity to G-quadruplex telomeric DNA FMycT (5'-duplex GGG TTAGGG TTAGGG TTAGGG-3') (unknown origin) assessed as stabilization by measuring change in melting temperature at 10 uM in potassium buffer by FRET melting assay; assay type: nucleic-acid assay
HeLa = experiment: Cytotoxicity against human HeLa cells assessed as inhibition of cell proliferation incubated for 72 hrs by alamar blue assay; assay type: functional, cell-based; conditions: Homo sapiens, HeLa, 72 h
[4] = Cytotoxicity against human MRC5 cells assessed as inhibition of cell proliferation incubated for 72 hrs by alamar blue assay; assay type: toxicity, cell-based; conditions: human, MRC5 cells
Quadruplex DNA [5] = experiment: Binding affinity to Trypanosoma brucei G-quadruplex telomeric DNA FEBR1T (5'-duplex GGG TTAGGG TTAGGG TTAGGG-3') assessed as stabilization by measuring change in melting temperature at 10 uM in potassium buffer by FRET melting assay; assay type: nucleic-acid assay
Trypanosoma brucei = experiment: Antitrypanosomal activity against Trypanosoma brucei bloodstream form assessed as inhibition of parasite growth incubated for 72 hrs by alamar blue assay; assay type: functional, organism-based; conditions: Trypanosoma brucei, 72 h
[6] = Binding affinity to hairpin duplex DNA F10T (unknown origin) assessed as stabilization by measuring change in melting temperature at 10 uM in potassium buffer by FRET melting assay
[7] = Selectivity index, ratio of IC50 for cytotoxicity against human MRC5 cells to IC50 for antileishmanial activity against Leishmania major (MHOM/IL/80/Friedlin) promastigotes; assay type: toxicity, cell-based; conditions: read-out: Ratio IC50
[8] = Selectivity index, ratio of IC50 for cytotoxicity against human MRC5 cells to IC50 for cytotoxicity against human HeLa cells; assay type: toxicity, cell-based; conditions: MRC5 cells versus HeLa cells, read-out: Ratio IC50
[9] = Selectivity index, ratio of IC50 for cytotoxicity against human MRC5 cells to IC50 for antitrypanosomal activity against Trypanosoma brucei bloodstream form; assay type: toxicity, cell-based; conditions: MRC5 cells versus Trypanosoma brucei bloodstream form, read-out: Ratio IC50

| Structure (SMILES) | ΔTm (Quadruplex DNA [1]) | ΔTm (Quadruplex DNA [2]) | ΔTm (Quadruplex DNA [3]) | ΔTm (Quadruplex DNA [5]) | IC50 (Trypanosoma brucei) | ΔTm [6] | IC50 (Leishmania major) | IC50 (HeLa) | IC50 at 72 h [4] | selectivity ratio [7] | selectivity ratio [8] | selectivity ratio [9] |
| --- | --- | --- | --- | --- | --- | --- | --- | --- | --- | --- | --- | --- |
| O=C1c2ccc3c4c(ccc(c24)C(=O)N1CC(c1ccccn1)N1CCOCC1)C(=O)N(CC(c1ccccn1)N1CCOCC1)C3=O (stereo unspecified) | 0.9 °C | 0.1 °C | 0.1 °C | 0.7 °C | 51.7 µM | 0.3 °C | > 100 µM | 96.9 µM | 83.1 µM | < 0.83 | 0.85 | 1.6 |
| C[n+]1ccc(CN2C(=O)c3ccc4c5c(ccc(c35)C2=O)C(=O)N(Cc2cc[n+](C)cc2)C4=O)cc1 | 4.9 °C | 13 °C | 20.1 °C | 9 °C | 0.98 µM | 5 °C | 1.56 µM | 14.7 µM | 0.49 µM | 0.31 | 0.033 | 0.49 |
| CC(CN1C(=O)c2ccc3c4c(ccc(c24)C1=O)C(=O)N(CC(C)N1CCN(C)CC1)C3=O)N1CCN(C)CC1 (stereo unspecified) | 9.2 °C | 20.5 °C | 13.2 °C | 17.5 °C | 0.17 µM | 1.7 °C | 8.08 µM | 1.68 µM | 1.4 µM | 0.17 | 0.83 | 8.2 |
| C[n+]1cccc2cc(N3C(=O)c4ccc5c6c(ccc(c46)C3=O)C(=O)N(c3ccc4c(ccc[n+]4C)c3)C5=O)ccc21 | 3.5 °C | 4.6 °C | 11 °C | 2.5 °C | 3.71 µM | 1.4 °C | 16.8 µM | 37 µM | 1.15 µM | 0.068 | 0.031 | 0.3 |
| CN1CCN(CCN2C(=O)c3ccc4c5c(ccc(c35)C2=O)C(=O)N(CCN2CCN(C)CC2)C4=O)CC1 | 11.3 °C | 21.5 °C | 16 °C | 12 °C | 0.48 µM | 2.7 °C | 1.68 µM | 1.06 µM | 6.78 µM | 4.04 | 6.4 | 14.2 |
| C[n+]1cc(N2C(=O)c3ccc4c5c(ccc(c35)C2=O)C(=O)N(c2cc3ccccc3[n+](C)c2)C4=O)cc2ccccc21 | 0.4 °C | 0.3 °C | 1.2 °C | -0.9 °C | 19.7 µM | 0.1 °C | 52.1 µM | 64.8 µM | 3.41 µM | 0.065 | 0.053 | 0.17 |
| C[n+]1ccc(N2C(=O)c3ccc4c5c(ccc(c35)C2=O)C(=O)N(c2cc[n+](C)cc2)C4=O)cc1 | 0 °C | -0.4 °C | -3.5 °C | -0.5 °C | 48.7 µM | -0.2 °C | > 63.9 µM | > 63.9 µM | > 63.9 µM | – | – | > 1.31 |
| CN1CCN(c2cccc(N3C(=O)c4ccc5c6c(ccc(c46)C3=O)C(=O)N(c3cccc(N4CCN(C)CC4)c3)C5=O)c2)CC1 | 5.8 °C | 6.4 °C | 8 °C | 4.6 °C | 0.18 µM | 0.1 °C | 0.33 µM | 0.47 µM | 1.48 µM | 4.41 | 3.09 | 7.91 |
| CN1CCN(C(C)(C)CN2C(=O)c3ccc4c5c(ccc(c35)C2=O)C(=O)N(CC(C)(C)N2CCN(C)CC2)C4=O)CC1 | 10.2 °C | 20.7 °C | 14.8 °C | 4 °C | 0.96 µM | 0.2 °C | 24.6 µM | 4.47 µM | 3.38 µM | 0.14 | 0.76 | 3.5 |

Further compounds by falling IC50 (Trypanosoma brucei), results first:

| ΔTm (Quadruplex DNA [1]) | ΔTm (Quadruplex DNA [2]) | ΔTm (Quadruplex DNA [3]) | ΔTm (Quadruplex DNA [5]) | IC50 (Trypanosoma brucei) | ΔTm [6] | Structure (SMILES) | IC50 (Leishmania major) | IC50 (HeLa) | IC50 at 72 h [4] | selectivity ratio [7] | selectivity ratio [8] | selectivity ratio [9] |
| --- | --- | --- | --- | --- | --- | --- | --- | --- | --- | --- | --- | --- |
| 1.3 °C | 0.5 °C | -1.6 °C | 0.7 °C | 44.1 µM | 0 °C | C[n+]1cccc(N2C(=O)c3ccc4c5c(ccc(c35)C2=O)C(=O)N(c2ccc[n+](C)c2)C4=O)c1 | > 63.9 µM | > 63.9 µM | 18.2 µM | < 0.28 | – | 0.41 |
| – | – | – | – | 14 µM | – | O=C1c2ccc3c4c(ccc(c24)C(=O)N1c1ccc(N2CCOCC2)cc1)C(=O)N(c1ccc(N2CCOCC2)cc1)C3=O | 45.4 µM | 46.4 µM | 68.4 µM | 1.5 | 1.47 | 4.88 |
| 2 °C | 20 °C | 13 °C | 11 °C | 0.61 µM | 3 °C | CN1CCN(CCCN2C(=O)c3ccc4c5c(ccc(c35)C2=O)C(=O)N(CCCN2CCN(C)CC2)C4=O)CC1 | 0.47 µM | 0.41 µM | 3.9 µM | – | – | – |
| -7 °C | 7 °C | 2 °C | 3.1 °C | 0.57 µM | 1 °C | O=C1c2ccc3c4c(ccc(c24)C(=O)N1CCCN1CCOCC1)C(=O)N(CCCN1CCOCC1)C3=O | 4.32 µM | 5.83 µM | 11.9 µM | 2.75 | 3.81 | 20.8 |
| 7.7 °C | 18.5 °C | 15 °C | 15.5 °C | 0.42 µM | 0.5 °C | CN1CCN(CC2(CN3C(=O)c4ccc5c6c(ccc(c46)C3=O)C(=O)N(CC3(CN4CCN(C)CC4)CC3)C5=O)CC2)CC1 | 12.7 µM | 1.77 µM | 1.51 µM | 0.12 | 0.85 | 3.6 |
| 1.4 °C | 2 °C | 0.6 °C | 3 °C | 0.35 µM | 0.5 °C | C[n+]1cccc2c(N3C(=O)c4ccc5c6c(ccc(c46)C3=O)C(=O)N(c3cccc4c3ccc[n+]4C)C5=O)cccc21 | 1.86 µM | 24.2 µM | 0.28 µM | 0.15 | 0.011 | 0.79 |
| – | – | – | – | 0.17 µM | – | O=C1c2ccc3c4c(ccc(c24)C(=O)N1c1ccccc1N1CCOCC1)C(=O)N(c1ccccc1N1CCOCC1)C3=O | 9.04 µM | 3.09 µM | 7.25 µM | 0.8 | 2.34 | 41.9 |
